Experiments:
IL-6 = experiment: Serum IL-6 levels in LPS-induced CRS; format: in vivo, BALB/c mice; settings: 50 µg LPS i.p.; 10 mg/kg single i.p. injection; serum 2 hours after challenge; versus PBS, p=0.0023
Protocol: 8-week-old male BALB/c mice were used for these studies. The mice were challenged with 50 µg LPS (Sigma Cat. No. L2630) dissolved in 0.1 mL PBS, a dosage designed to ensure all animals survived the challenge, via intraperitoneal injection. Mouse serum was collected 2 hours after the challenge, and IL-6 was measured with the Mouse Il-6 Flex Set (BD Biosciences Cat. No. 558301).
Within 2 minutes of the LPS injection, test compound ketorolac (racemic mixture) or control vehicle (PBS) was administered at 10 mg per kg body weight by single intraperitoneal injection. 5 mice were included per experimental group.

LPS-induced CRS [1] = experiment: Acute diarrhea caused by high-dose LPS-induced CRS; format: in vivo, BALB/c mice; settings: LPS 15 mg/kg i.p.
Protocol: 8-10-week-old female BALB/c mice were used for these studies. The mice were challenged with LPS at 15 mg per kg body weight, a dosage which had been empirically determined to induce diarrhea in 100% of tested subjects, via intraperitoneal injection. The mice were monitored for diarrhea symptoms, with diarrhea defined by the presence of watery stools 6 hours after treatment. Within 2 minutes of the LPS injection, test compound ketorolac (racemic mixture, suspended in PBS) or control vehicle (PBS) was administered at 0.1 mg (corresponding to 5 mg/kg) by single intraperitoneal injection.

COX1 = COX1 (Homo sapiens, UniProt P23219); settings: no test described; cited from earlier work
[2] = test system: C26 tumor cell-induced cytokine storm; experiment: Tumor-induced cytokine storm model, serum cytokines (Mouse-Cytokine-32-Plex assay); settings: gavage 0.2 mg daily for six days, serum on day 7, compared to PBS controls
Protocol: Cytokine storm inducing C26 tumor cells were cultured in Advanced RPMI 1640 medium supplied with 5% fetal bovine serum and 1% penicillin/streptomycin and maintained in a 5% CO2, 37° C. humidified incubator. Tumor cells with viability of >90% were chosen for the study. Viable tumor cells (1 × 10^6 cells) were re-suspended in 100 µL of PBS and subcutaneously injected into the left flank of mice. All procedures were performed in laminar flow hood following sterile techniques.
6-8 week BALB/c male and female mice were used for these studies. Following tumor inoculation, the animals were returned to the cage. The mice were monitored for the appearance of palpable tumor and cytokine storm development by observing health condition change and testing serum cytokines with Mouse-Cytokine-32-Plex assay.
2-4 mice were included in each experimental group. On day 7, mouse blood samples were collected and allowed to clot for one hour at room temperature. The samples were then centrifuged for 15 min at 3,000 rpm (1500 × g) at 4° C. Thirty microliters of serum per treatment animal were assessed for cytokine profiles using a Mouse-Cytokine-32-Plex assay (Eve Technologies Corporation, Calgary, AB, Canada).

LPS-induced CRS [3] = experiment: Survival of mice with LPS-induced CRS; format: in vivo, BALB/c mice; settings: 0.2 mg LPS i.p.
Protocol: 8-week-old female BALB/c mice were used for these studies. […] The mice were challenged with 0.2 mg LPS (Sigma Cat. No. L2630) dissolved in 0.1 mL PBS via intraperitoneal injection. The mice were monitored for health condition and survival for a minimum of seven days. […]

COX2 = target: T1, COX2 (Homo sapiens, UniProt P35354); settings: no test described; cited from earlier work
T1 sequence (P35354 18-604): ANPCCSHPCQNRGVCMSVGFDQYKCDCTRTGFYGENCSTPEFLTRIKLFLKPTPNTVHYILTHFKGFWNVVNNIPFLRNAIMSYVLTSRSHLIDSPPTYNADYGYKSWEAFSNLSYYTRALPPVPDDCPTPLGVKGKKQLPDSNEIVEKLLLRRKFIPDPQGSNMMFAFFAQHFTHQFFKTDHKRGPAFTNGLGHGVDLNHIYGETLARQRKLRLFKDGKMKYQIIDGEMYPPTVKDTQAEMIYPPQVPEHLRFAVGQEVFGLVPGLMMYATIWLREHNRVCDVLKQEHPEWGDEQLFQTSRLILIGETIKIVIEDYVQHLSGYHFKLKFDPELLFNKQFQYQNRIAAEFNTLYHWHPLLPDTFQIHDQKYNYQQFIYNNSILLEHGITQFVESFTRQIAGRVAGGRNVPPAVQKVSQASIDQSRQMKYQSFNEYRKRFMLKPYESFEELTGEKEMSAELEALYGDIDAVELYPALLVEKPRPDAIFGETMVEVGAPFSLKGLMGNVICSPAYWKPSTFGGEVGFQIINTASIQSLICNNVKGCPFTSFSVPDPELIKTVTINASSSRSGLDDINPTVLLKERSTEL

LPS-induced CRS [4] = experiment: Body weight loss caused by low-dose LPS-induced CRS; format: in vivo, BALB/c mice; settings: 0.05 mg LPS i.p.; 0.3 mg (15 mg/kg) oral; next day; compared with aspirin, p=0.0267
Protocol: 8-week-old female BALB/c mice were used for these studies. The mice were challenged with 0.05 mg LPS (Sigma Cat. No. L2630) via intraperitoneal injection. Body weight was measured before LPS challenge and the next day after the challenge.
Within 2 minutes of LPS injection, test compound (R)-ketorolac (0.3 mg, corresponding to 15 mg/kg), aspirin (0.3 mg, corresponding to 15 mg/kg), or control vehicle (PBS) was orally administered.

Chain of COX1 (P23219 24-599): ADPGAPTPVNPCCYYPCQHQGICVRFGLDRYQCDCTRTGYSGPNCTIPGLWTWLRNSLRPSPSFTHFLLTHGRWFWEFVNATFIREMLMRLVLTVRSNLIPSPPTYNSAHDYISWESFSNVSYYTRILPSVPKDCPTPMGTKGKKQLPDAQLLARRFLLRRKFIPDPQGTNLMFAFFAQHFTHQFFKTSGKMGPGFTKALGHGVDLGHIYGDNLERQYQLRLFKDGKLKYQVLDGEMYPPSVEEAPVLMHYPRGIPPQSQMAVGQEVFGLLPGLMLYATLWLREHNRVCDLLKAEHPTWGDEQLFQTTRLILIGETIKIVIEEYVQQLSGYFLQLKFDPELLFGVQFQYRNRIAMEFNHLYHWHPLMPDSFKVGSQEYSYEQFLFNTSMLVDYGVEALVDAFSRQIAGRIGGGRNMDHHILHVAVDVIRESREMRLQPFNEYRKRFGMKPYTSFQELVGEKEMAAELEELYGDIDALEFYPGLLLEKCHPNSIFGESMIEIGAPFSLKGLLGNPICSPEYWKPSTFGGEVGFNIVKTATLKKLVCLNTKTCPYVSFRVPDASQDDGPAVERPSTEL

| SMILES | serum IL-6 levels (IL-6) | decrease of acute diarrhea occurrence (LPS-induced CRS [1]; 0.1 mg (5 mg/kg) i.p., versus control) [%] | diarrhea present, % of mice (LPS-induced CRS [1]; 0.1 mg (5 mg/kg) single i.p. injection, watery stools 6 hours after treatment, n=8, control 87.5%) [%] | activity against COX1 (COX1) | serum concentration of G-CSF [2] | serum concentration of GM-CSF [2] | serum concentration of IL-1β [2] | serum concentration of IL-6 [2] | serum concentration of IL-7 [2] | serum concentration of IL-10 [2] | serum concentration of LIF [2] | serum concentration of MCP-1 [2] | serum concentration of MIP-1A [2] | serum concentration of TNF-α [2] | survival rate (LPS-induced CRS [3]; 10 mg/kg single dose, surviving mice / n=6) | survival rate (LPS-induced CRS [3]; 10 mg/kg, control 33.3%) [%] | increase in survival rate (LPS-induced CRS [3]; 10 mg/kg, versus PBS control) [%] | activity against COX2 (COX2) | body weight loss (LPS-induced CRS [4]) |
| --- | --- | --- | --- | --- | --- | --- | --- | --- | --- | --- | --- | --- | --- | --- | --- | --- | --- | --- | --- |
| O=C(c1ccccc1)c1ccc2n1CCC2C(=O)O (racemic) [ketorolac] | decreased serum IL-6 levels | 65 | 12.5 |  |  |  |  |  |  |  |  |  |  |  |  |  |  |  |  |
| O=C(c1ccccc1)c1ccc2n1CC[C@H]2C(=O)O [(R)-ketorolac] |  |  |  | not active | effective in reducing | effective in reducing | effective in reducing | effective in reducing | effective in reducing | effective in reducing | effective in reducing | effective in reducing | effective in reducing | effective in reducing | ⅚ | 83.3 | 50 | not active | significantly reduced body weight loss |

— patent publication US20230110998A1, “Compositions and Methods for Treatment of Cytokine Storm and Cytokine Release Syndrome” (Yinuoke Medicine Science Technology Company Ltd., priority 2020, published 2023)
